Data: US11219625B2, “Inhibitors of N-linked glycosylation and methods using same” (YALE UNIVERSITY, priority 2015, dated 2022)

How the values were obtained:
[1] = system: OST; test: 35S metabolic labeling of pSAP and SHBG in Hela cells; type: cell-based
Procedure: FIGS. 2A-2I illustrate the finding that NGI-1 blocks OST function. FIG. 2A illustrates the western blots of glycosylated luciferase (Luc) after treatment with 1 μM tunicmaycin (Tn) and 10 μM NGI-1 in CHO-Lec15 and CHO-Lec35 cells with stable expression of ER-LucT. FIG. 2B is a […] illustrating FACE analysis of lipid linked oligosaccharides (LLOs). FIG. 2C is a series of western blots illustrating the effects of NGI-1 (5 μM) on free oligosaccharides (left panel) and N-linked glycans cleaved from peptides with Peptide-N-Glycosidase F (right panel). Carbohydrate size is indicated with glucose markers (G4-G7). FIG. 2D is a western blot illustrating cell free inhibition of the OST using a rabbit reticulocyte lysate translation system supplemented with canine pancreas rough microsomes (cRM). Saposin-DDK-His6 mRNA was translated for 60 min in the presence of ^35S methionine and the indicated concentration of NGI-1 or Tn. […] FIG. 2E comprises a series of western blots illustrating results from NGI-1 compared to siRNA knockdown of STT3A or STT3B. Glycoforms are represented by 0-5n and 0-2n respectively and average number of glycans per sample is reported for each condition. NC=non-coding siRNA, EH=endoglycosidase H treated. […] FIGS. 2G-2H: Dose response and quantitation of NGI-1 effect on pSAP (squares) and SHBG glycosylation (circles). […]

[2] = system: A549 cells; test: Cell cycle distribution by flow cytometry, A549; type: cell-based; conditions: A549, NGI-1 24 h
Procedure: FIGS. 5A-5G illustrate NGI-1 induces G1 arrest and senescence in EGFR addicted tumor cells. FIG. 5A illustrates cell cycle distribution of PC9 cells after 24 h NGI-1 treatment for 24 h determined by flow cytometry. […] FIG. 5B illustrates cell cycle distribution of A549 cells after 24 h NGI-1 treatment for 24 h determined by flow cytometry. FIG. 5C illustrates western blot time course of cyclin D1 expression in PC9 and A549 cells after NGI-1 treatment. FIG. 5D illustrates quantitative real-time PCR analysis of PC9 and A549 cells. A time course of cyclin D1 expression levels relative to GAPDH is represented. […] FIG. 5F illustrates senescence of PC9 cells explored by: cell autofluorescence, measured by flow cytometry using a detector for PE/YFP; lipofuscin accumulation, detected by confocal laser scanning microscopy using an excitation laser of 405 nm with acquired signals from spectrums of yellow 575-620 nm; and morphology changes, enlarged vs. flattened. […] Significance was calculated using a T test (*p<0.05. **p<0.01). FIG. 5G illustrates senescence of A549 cells explored by: cell autofluorescence, measured by flow cytometry using a detector for PE/YFP; lipofuscin accumulation, detected by confocal laser scanning microscopy using an excitation laser of 405 nm with acquired signals from spectrums of yellow 575-620 nm; and morphology changes, enlarged vs. flattened. […]

## Cc1cnc(NC(=O)c2cc(S(=O)(=O)N(C)C)ccc2N2CCCC2)s1 [NGI-1, 5-(N,N-Dimethylsulfamoyl)-N-(5-methylthiazol-2-yl)-2-(pyrrolidin-1-yl)benzamide]
[1]; 10 μM NGI-1, 24 h, compared to STT3A/STT3B knockdown
  glycosylation of pSAP and SHBG sites: reduced glycosylation of all sites on pSAP and SHBG
[1]; NGI-1 24 h prior to, during 20 min labeling, or both
  reversibility of OST inhibition: reversible OST inhibitor
[2]
  cell cycle distribution: did not significantly change the cell cycle distribution
